# According to patent US7713994B2 (Wyeth LLC, priority 2005, dated 2010):
# Tests used:
# SK-UT-1B = assay: In Vitro Cellular Activity (Table III), SK-UT-1B; type: cell-based; conditions: Homo sapiens, Skut1B; SK-UT-1B cells
# HCT-116 = assay: Cytotoxicity assay (SRB), HCT-116; type: cell-based; conditions: Homo sapiens, HCT-116, 72 h, HCT116 cells, SRB, three days; read-out: In Vitro Cellular Activity IC50 HCT116
# Procedure, shortened: (§1)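 BT474 (12000 cells/well) was treated for 6 days, whereas HCT-116 (4000), LoVo (6000) and MCF-7 (6000) were treated for 3 days, all in RPMI 1640 containing 5% FBS. Surviving-cell percentage came from SRB dye binding measured at 540 nm.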
# MCF-7 = assay: Cytotoxicity assay (SRB), MCF-7; type: cell-based; conditions: Homo sapiens, MCF7, 72 h, MCF-7 cells, SRB, three days; read-out: In Vitro Cellular Activity IC50 MCF-7
# Procedure, shortened: as §1
# LoVo = assay: Cytotoxicity assay (SRB), LoVo; type: cell-based; conditions: Homo sapiens, LoVo, 72 h, LoVo cells, SRB, three days; read-out: In Vitro Cellular Activity IC50 LOVO
# Procedure, shortened: as §1
# BT474 = assay: Cytotoxicity assay (SRB), BT474; type: cell-based; conditions: Homo sapiens, BT-474, 144 h, BT474 cells, SRB, 6 days; read-out: In Vitro Cellular Activity IC50 BT474
# Procedure, shortened: as §1
# cyclin E/CDK2 enzyme = target: T1, cyclin E/CDK2 enzyme (Homo sapiens, UniProt P24941); assay: CDK2 ELISA kinase assay (phospho-Rb ser 795 detection); type: biochemical; conditions: In Vitro Enzyme Assays, read-out: CDK2 IC50
# T1 construct: made in house; host or cells: Sf9 insect cells, recombinant baculovirus
# Procedure, shortened: (§2)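 Inhibition was derived from A450 relative to control wells lacking compound, following an anti-phospho-Rb Ser795 sandwich of HRP detection. The reactions combined coated GST-Rb fragment, 200 μM ATP and baculovirus-expressed cyclin/CDK enzymes, incubated for 1 h at 30° C.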
# cyclin B/CDK1 enzyme = target: T2, cyclin B/CDK1 enzyme (Homo sapiens, UniProt P06493); assay: CDK1 ELISA kinase assay (phospho-Rb ser 795 detection); type: biochemical; conditions: In Vitro Enzyme Assays, read-out: CDK1 IC50
# T2 construct: purchased New England BioLabs; host or cells: Sf9 insect cells, recombinant baculovirus
# Procedure, shortened: as §2
# cyclin D1/cdk 4 enzyme = target: T3, cyclin D1/cdk 4 enzyme (Homo sapiens, UniProt P11802); assay: CDK4 ELISA kinase assay (phospho-Rb ser 795 detection); type: biochemical; conditions: In Vitro Enzyme Assays, 200 μM ATP, read-out: CDK4 IC50
# T3 construct: made in house; host or cells: Sf9 insect cells, recombinant baculovirus
# Procedure, shortened: as §2
# T2 sequence (P06493 whole entry): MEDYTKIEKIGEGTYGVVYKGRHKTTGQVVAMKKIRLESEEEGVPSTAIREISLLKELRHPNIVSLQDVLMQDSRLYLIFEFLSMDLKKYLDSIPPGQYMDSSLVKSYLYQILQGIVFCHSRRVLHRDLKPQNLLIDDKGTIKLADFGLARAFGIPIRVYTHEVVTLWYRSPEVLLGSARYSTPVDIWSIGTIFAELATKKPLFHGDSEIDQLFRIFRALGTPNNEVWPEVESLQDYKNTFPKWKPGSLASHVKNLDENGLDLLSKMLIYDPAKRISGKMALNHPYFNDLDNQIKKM
# T2 sequence (P14635 whole entry partner): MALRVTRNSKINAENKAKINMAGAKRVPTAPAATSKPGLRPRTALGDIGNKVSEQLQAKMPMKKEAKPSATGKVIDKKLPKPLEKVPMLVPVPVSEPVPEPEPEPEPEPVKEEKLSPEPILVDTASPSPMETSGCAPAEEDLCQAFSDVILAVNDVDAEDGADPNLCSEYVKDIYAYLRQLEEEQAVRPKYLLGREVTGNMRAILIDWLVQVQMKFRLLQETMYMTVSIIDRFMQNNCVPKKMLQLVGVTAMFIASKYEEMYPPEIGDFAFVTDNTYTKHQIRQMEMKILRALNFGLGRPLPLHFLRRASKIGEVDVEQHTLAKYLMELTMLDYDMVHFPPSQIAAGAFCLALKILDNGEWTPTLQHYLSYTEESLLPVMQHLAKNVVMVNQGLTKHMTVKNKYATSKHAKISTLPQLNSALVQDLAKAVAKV
# T3 sequence (P11802 whole entry, species assumed): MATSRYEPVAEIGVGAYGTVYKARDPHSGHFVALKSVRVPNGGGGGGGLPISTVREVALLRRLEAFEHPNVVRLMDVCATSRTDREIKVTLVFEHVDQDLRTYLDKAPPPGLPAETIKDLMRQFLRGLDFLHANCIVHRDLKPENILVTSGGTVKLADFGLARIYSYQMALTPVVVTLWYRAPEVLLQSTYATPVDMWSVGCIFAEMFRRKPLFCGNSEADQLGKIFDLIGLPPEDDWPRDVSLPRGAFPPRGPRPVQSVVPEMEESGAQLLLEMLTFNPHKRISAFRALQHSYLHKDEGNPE
# T3 sequence (P24385 whole entry partner, species assumed): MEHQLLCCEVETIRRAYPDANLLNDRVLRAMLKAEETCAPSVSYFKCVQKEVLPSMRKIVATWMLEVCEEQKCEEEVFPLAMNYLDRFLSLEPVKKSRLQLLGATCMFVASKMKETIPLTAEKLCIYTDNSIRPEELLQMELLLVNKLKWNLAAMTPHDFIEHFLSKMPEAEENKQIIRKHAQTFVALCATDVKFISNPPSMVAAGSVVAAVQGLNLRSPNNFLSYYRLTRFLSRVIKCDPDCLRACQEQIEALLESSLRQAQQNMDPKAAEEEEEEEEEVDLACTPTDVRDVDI
Compound,IC50 (SK-UT-1B) [µM],melting point,IC50 (cyclin E/CDK2 enzyme) [µM],IC50 (cyclin B/CDK1 enzyme) [µM],IC50 (cyclin D1/cdk 4 enzyme) [µM],IC50 (HCT-116) [µM],IC50 (MCF-7) [µM],IC50 (LoVo) [µM],IC50 (BT474) [µM]
CC(C)(C)OC(=O)N1CCN(Cc2ccc(N/C=C3\C(=O)NC(=O)c4ccccc43)cc2)CC1 [Example 34],15,219 to 220 °C,–,–,–,14,38,> 50,25
"O=C1NC(=O)c2ccccc2/C1=C\c1ccc(O)cc1 [Example 11, (4E)-4-(4-hydroxybenzylidene)isoquinoline-1,3(2H,4H)-dione]",> 36,242 to 243 °C,> 37,> 37,> 50,2.3,18,6.8,> 50
"O=C1NC(=O)c2ccccc2/C1=C/Nc1cccc(CN2CCCCC2)c1 [Example 16, (4Z)-4-({[3-(Piperidin-1-ylmethyl)phenyl]amino}methylene)isoquinoline-1,3(2H,4H)-dione]",18.5,173 to 174 °C,–,–,–,14,19,14,45
"O=C1NC(=O)c2ccccc2/C1=C/Nc1cccc(CN2CCCC2)c1 [Example 18, (4Z)-4-({[3-(Pyrrolidin-1-ylmethyl)phenyl]amino}methylene)isoquinoline-1,3(2H,4H)-dione]",15.8,172 to 173 °C,–,–,–,15,15,23,31
"O=C1NC(=O)c2ccccc2/C1=C/Nc1ccc(CCN2CCCC2)cc1 [Example 5, (4Z)-4-({[4-(2-Pyrrolidin-1-ylethyl)phenyl]amino}methylene)isoquinoline-1,3(2H,4H)-dione]",10.2,224 to 225 °C,> 28,> 28,10.2,10.8,8,–,–
"O=C1NC(=O)c2ccc(Br)cc2/C1=C/NCc1ccncc1 [Example 31, (4Z)-6-Bromo-4-{[(pyridin-4-ylmethyl)amino]methylene}isoquinoline-1,3(2H,4H)-dione]",> 50,258 to 259 °C,2.4,> 50,> 50,31,> 50,> 50,41
"O=C1NC(=O)c2ccccc2/C1=C/Nc1ccc(N2CCOCC2)cc1 [Example 6, (4Z)-4-{[(4-Morpholin-4-ylphenyl)amino]methylene}isoquinoline-1,3(2H,4H)-dione]",18.3,–,> 29,> 29,> 50,> 50,> 50,> 50,> 50
"O=C1NC(=O)c2ccccc2/C1=C/Nc1ccc(CN2CCC(O)CC2)cc1 [Example 23, (4Z)-4-[({4-[(4-Hydroxypiperidin-1-yl)methyl]phenyl}amino)methylene]isoquinolin-1,3(2H,4H)-dione]",16.3,224 to 225 °C,26,> 26,5.15,10.5,8.7,–,–
"COc1cc(CN/C=C2\C(=O)NC(=O)c3ccc(Br)cc32)ccc1O [Example 28, (4Z)-6-Bromo-4-{[(4-hydroxy-3-methoxybenzyl)amino]methylene}isoquinoline-1,3(2H,4H)-dione]",33,260 to 261 °C,–,–,–,28,> 50,> 50,39
"O=C1NC(=O)c2ccccc2/C1=C/Nc1ccc(CN2CCCCC2)cc1 [Example 13, (4Z)-4-({[4-(Piperidin-1-ylmethyl)phenyl]amino}methylene)isoquinoline-1,3(2H,4H)-dione]",11.3,185 to 186 °C,–,> 28,7.9,8.6,7.3,15,27
"O=C1NC(=O)c2ccc(Br)cc2/C1=C/Nc1ccccc1CN1CCCCC1 [Example 41, (4Z)-6-Bromo-4-({[2-(piperidin-1-ylmethyl)phenyl}amino)methylene]isoquinolin-1,3(2H,4H)-dione]",11,170 to 171 °C,–,–,–,39,13,49,25
"O=C1NC(=O)c2ccccc2/C1=C/Nc1ccc(-c2ccccc2)cc1 [Example 21, (4Z)-4-[(1,1′-Biphenyl-4-ylamino)methylene]isoquinoline-1,3(2H,4H)-dione]",19.7,261 to 262 °C,–,–,–,> 50,> 50,> 50,> 50
"O=C1NC(=O)c2ccccc2/C1=C/Nc1cccc(CN2CCCCCC2)c1 [Example 17, (4Z)-4-({[3-(Azepan-1-ylmethyl)phenyl]amino}methylene)isoquinoline-1,3(2H,4H)-dione]",16,116 to 117 °C,–,–,–,14,20,19,30
"Cn1ccnc1Sc1ccc(N/C=C2\C(=O)NC(=O)c3ccccc32)cc1Cl [Example 14, (4Z-4-[{3-Chloro-4[(1-methyl-1H-imidazole-2-uy)thio]phenyl}amino)methylene]isoquinoline-1,3(2H,4H)-dione]",18.4,264 to 265 °C,–,–,–,8.7,> 50,> 50,38
CN1CCN(Cc2ccc(N/C=C3\C(=O)NC(=O)c4ccccc43)cc2)CC1 [Example 20],18.5,231 to 232 °C,–,> 26,6.7,10,14,–,–

# Now those with a lower IC50 (SK-UT-1B), led by results:
IC50 (SK-UT-1B) [µM],melting point,IC50 (cyclin E/CDK2 enzyme) [µM],IC50 (cyclin B/CDK1 enzyme) [µM],IC50 (cyclin D1/cdk 4 enzyme) [µM],Compound,IC50 (HCT-116) [µM],IC50 (MCF-7) [µM],IC50 (LoVo) [µM],IC50 (BT474) [µM]
3.5,242 to 243 °C,–,–,–,"O=C1NC(=O)c2cc(Br)ccc2/C1=C/Nc1ccc(CN2CCCCC2)cc1 [Example 44, (4Z)-7-Bromo-4-({[4-(Piperidin-1-ylmethyl)phenyl]amino}methylene)isoquinoline-1,3(2H,4H)-dione]",3.6,6.6,4,4.6
4.3,186 to 187 °C (dec.),> 29,> 29,12.1,"CN1CCN(c2ccc(N/C=C3\C(=O)NCc4ccccc43)cc2)CC1 [Example 2, (4Z)-4-({[4-(4-Methyl-1-piperazinyl)phenyl]amino}methylene)-1,4-dihydro-3(2H)-isoquinolinone]",7.4,6.7,7.8,21.5
4.4,–,13,> 32,42,O=C1NCc2ccccc2/C1=C/Nc1ccc(-c2c[nH]cn2)cc1 [compound 3],7.8,11,12,20
7.8,222 to 225 °C,–,> 50,–,"O=C1NC(=O)c2ccc(Br)cc2/C1=C/Nc1ccc(CN2CCCCC2)cc1 [Example 24, (4Z)-6-Bromo-4-{[(4-piperidin-1-ylmethyl)phenyl]amino}methyleneisoquinoline-1,3(2H,4H)-dione]",5,3.1,6,4.8
6.1,198 to 200 °C,> 27,> 27,4.3,"O=C1NC(=O)c2ccccc2/C1=C/Nc1ccc(CN2CCCCCC2)cc1 [Example 26, (4Z)-4-({[4-(Azepan-1-ylmethyl)phenyl]amino}methylene)isoquinoline-1,3(2H,4H)-dione]",7.3,8,–,–
4.9,–,1.4,> 50,> 50,O=C1NC(=O)c2ccc(Br)cc2/C1=C/NCc1cccnc1 [compound 30],9.2,15,14,31
3.3,–,> 50,7.2,11,"CN1CCN(c2ccc(N/C=C3\C(=O)NC(=O)c4ccc([N+](=O)[O-])cc43)cc2)CC1 [Example 33, (4Z)-6-Nitro-4-({[4-(4-methylpiperazin-1-yl)phenyl}amino}methylene)isoquinoline-1,3(2H,4H)-dione]",3.3,11,3.2,5.2
